Data published in PubChem BioAssay (NCI).
Several values for one entry are separate records, joined by “and”; a condition that tells them apart may be missing. Identical values can stand only once.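 Cells were grown in 96-well plates and exposed to each compound for 48 hours at five concentrations; endpoints were interpolated linearly between bracketing concentrations, or set to the highest concentration if not reached. The concentration for 50% growth inhibition is given as GI50. TGI denotes the concentration required for complete inhibition of growth.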

Experiments:
Test in all cases: inhibition of tumour cell growth, NCI panel, 48 h
SW-620 colon = test system: SW-620 colon
MDA-MB-231 breast = test system: MDA-MB-231 breast
HS 578T breast = test system: HS 578T breast
SF-539 CNS = test system: SF-539 CNS
T-47D breast = test system: T-47D breast
OVCAR-3 ovarian = test system: OVCAR-3 ovarian
NCI-H23 lung = test system: NCI-H23 lung
SK-MEL-28 melanoma = test system: SK-MEL-28 melanoma
M14 melanoma = test system: M14 melanoma
A498 renal = test system: A498 renal

SMILES | TGI (SW-620 colon) | TGI (MDA-MB-231 breast) | TGI (HS 578T breast) | TGI (SF-539 CNS) | TGI (T-47D breast) | TGI (OVCAR-3 ovarian) | TGI (NCI-H23 lung) | TGI (SK-MEL-28 melanoma) | TGI (M14 melanoma) | TGI (A498 renal) | GI50 (SF-539 CNS) | GI50 (SW-620 colon) [µM] | GI50 (MDA-MB-231 breast) [µM] | GI50 (HS 578T breast) [µM] | GI50 (T-47D breast) [µM] | GI50 (OVCAR-3 ovarian) [µM] | GI50 (NCI-H23 lung) [µM] | GI50 (SK-MEL-28 melanoma) [µM] | GI50 (M14 melanoma) [µM] | GI50 (A498 renal) [µM]
CC(=O)NC1C(OCc2ccccc2)OC(CO)C(O)C1OC(C)C(=O)N[C@@H](C)C(=O)N[C@H](CCC(=O)NCCNCCNc1c2ccccc2nc2cccc([N+](=O)[O-])c12)C(N)=O (stereo partly specified) | > 38.1 µM | 0.639 µM | 5.13 µM | 0.991 µM | 0.598 µM | 4.44 µM | 0.0902 µM | 0.723 µM | 0.436 µM | 0.32 µM |  |  |  |  |  |  |  |  |  | 
O=C(Nc1ccccc1)N1CCN(C(=O)Nc2ccccc2)C1=S | > 100 µM | > 100 µM | > 100 µM | 41.5 µM | > 100 µM | > 100 µM | 55.4 µM | > 100 µM | > 100 µM | 7.64 µM |  |  |  |  |  |  |  |  |  | 
CC1=NN(C(=O)CC(=O)Nc2cccc(C)c2)C(=O)C1N=Nc1ccc(S(=O)(=O)CCOS(=O)(=O)O)cc1 (stereo unspecified) | 14.5 µM | 14.8 µM | 15.3 µM | 6.49 µM | > 49.5 µM | 14.9 µM | 24.6 µM | 19.7 µM | 17.3 µM | 37.1 µM |  |  |  |  |  |  |  |  |  | 
ClC1=NN=C(c2c[nH]c3ccccc23)CC1NCc1ccccc1 (stereo unspecified) | > 100 µM | > 100 µM | > 100 µM | > 100 µM | > 100 µM | > 100 µM | > 100 µM | > 100 µM | > 100 µM | > 100 µM |  |  |  |  |  |  |  |  |  | 
Clc1ccc2c(NCCCCCCNc3ccnc4cc(Cl)ccc34)ccnc2c1 | 3.78 µM | 10.2 µM | > 48.8 µM | 3.6 µM | 5.42 µM | 3.77 µM | 31.5 µM | 9.78 µM | 3.51 µM | 42.3 µM |  |  |  |  |  |  |  |  |  | 
CCOC(=O)c1cc(-c2ccc(OC)cc2)c([N+](=O)[O-])[nH]1 | > 10 µM | > 10 µM | > 10 µM | > 10 µM | > 10 µM | > 10 µM | > 10 µM | > 10 µM | > 10 µM | > 10 µM |  |  |  |  |  |  |  |  |  | 
Oc1ccc(C(O)C2CCCCN2)cc1O (stereo unspecified) | > 100 µM | > 100 µM | > 100 µM | > 100 µM | 54.3 µM | > 100 µM | > 100 µM | > 100 µM | > 100 µM | > 100 µM |  |  |  |  |  |  |  |  |  | 
COC(=O)C1OC(O[C@H]2CC[C@]3(C)[C@H]4CC=C5[C@@H]6CC(C)(C)CC[C@]6(C(=O)OC6OCC(O)C(O)C6OC6OC(C)C(OC7OCC(O)C(O)C7O)C(O)C6O)[C@H](O)C[C@@]5(C)[C@]4(C)CC[C@H]3C2(C)C)C(O)C(O)C1O (stereo partly specified) | > 57 µM and 27.2 µM | 7.48 µM and 4.39 µM | 35.9 µM and 35.2 µM | > 100 µM and 37.5 µM | > 100 µM and 27.2 µM | > 78.1 µM and 25 µM | 4.76 µM and 6.24 µM | 3.57 µM and 4.63 µM | 7.65 µM and 14.8 µM | 3.55 µM and 3.85 µM | > 100 µM and 19 µM |  |  |  |  |  |  |  |  | 
COc1ccc(CCNC(=O)Cc2ccccc2CO)cc1OC | > 100 µM | > 100 µM | > 100 µM | > 100 µM | > 100 µM | > 100 µM | > 100 µM | > 100 µM | > 100 µM | > 100 µM |  |  |  |  |  |  |  |  |  | 
NC(=O)[C@H](Cc1ccc(O)cc1)Nc1c(O)c2c(c(O)c1Cl)C(=O)C=CC2=O | 2.82 µM | 5.23 µM | > 9.16 µM | 5.28 µM | 5.27 µM | > 5.74 µM | > 8.2 µM | 4.64 µM | > 7 µM | > 10 µM |  |  |  |  |  |  |  |  |  | 
O=C1c2cc3c(cc2-c2c1c1cc(F)c(F)cc1c(=O)n2CCCn1ccnc1)OCO3 | > 100 µM | > 100 µM | > 100 µM | 0.0457 µM | 0.0577 µM | 1.52 µM | 0.29 µM | > 100 µM | > 100 µM | 0.116 µM | < 0.01 µM | < 0.01 | 0.311 | 1.89 | < 0.01 | 0.116 | 0.0204 | 0.228 | 0.0101 | 0.0233
CSC(SC)=C(C(=O)c1ccc(Cl)cc1)n1c(=O)sc2cc(Br)ccc21 | > 100 µM | > 100 µM | > 100 µM | > 100 µM | > 100 µM | > 100 µM | > 100 µM | > 100 µM | > 100 µM | > 100 µM |  |  |  |  |  |  |  |  |  | 
